Experimental data reported in ChEMBL document CHEMBL1201862, “PubChem BioAssay data set” (2004).
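Compound exposure: 48 hours, 5 concentrations, 96-well plates. Here, GI50 denotes the concentration required for 50% inhibition of growth.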 The source made the active and inactive calls. Cut-off read from the data, not from the text of the source: active = GI50 up to about 1.1 µM and inactive = higher.

Legend:
Experiment in all cases: DTP human tumour cell line panel, 48 h
HCT-116 = system: HCT-116
HT-29 = system: HT-29
M14 = system: M14
MCF7 = system: MCF7
MDA-MB-231 = system: MDA-MB-231
NCI-H23 = system: NCI-H23
NCI-H522 = system: NCI-H522
OVCAR-3 = system: OVCAR-3
PC-3 = system: PC-3
SF-295 = system: SF-295
SF-539 = system: SF-539
SK-OV-3 = system: SK-OV-3
SN12C = system: SN12C
SW-620 = system: SW-620
U-251 = system: U-251
UACC-62 = system: UACC-62
OVCAR-4 = system: OVCAR-4
RPMI-8226 = system: RPMI-8226
SK-MEL-28 = system: SK-MEL-28
Malme-3M = system: Malme-3M

SMILES	GI50 (HCT-116)	GI50 (HT-29)	GI50 (M14)	GI50 (MCF7)	GI50 (MDA-MB-231)	GI50 (NCI-H23)	GI50 (NCI-H522)	GI50 (OVCAR-3)	GI50 (PC-3)	GI50 (SF-295)	GI50 (SF-539)	GI50 (SK-OV-3)	GI50 (SN12C)	GI50 (SW-620)	GI50 (U-251)	GI50 (UACC-62)	GI50 (OVCAR-4)	GI50 (RPMI-8226)	GI50 (SK-MEL-28)	GI50 (Malme-3M)
CC(=O)OC1C(Oc2c(C)cc3c(c2O)[C@@H](C)CC[C@@H]3[C@@H](C)CCC=C(C)C)OCC(O)C1O (some centres undefined)	18.2 µM (inactive)	14.4 µM (inactive)	16.9 µM (inactive)	20.9 µM (inactive)	19.8 µM (inactive)	17.9 µM (inactive)	21.2 µM (inactive)	15.7 µM (inactive)	20.3 µM (inactive)	19.4 µM (inactive)	18.5 µM (inactive)	19.3 µM (inactive)	17.5 µM (inactive)	18.7 µM (inactive)	17.3 µM (inactive)	18.3 µM (inactive)				
COC1/C=C/C(C)C(C(C)C(OC)C(C)CCC(=O)C(C)C(CC(=O)O)OC)OC(=O)/C=C/C=C(\C)CC(OC)CC2=CC(=O)O[C@H](C2)C(C)C(OC)CC(OC)/C=C/C(C)C(OC)C1 (some centres undefined)		0.916 µM (active)	0.222 µM (active)	0.439 µM (active)	0.45 µM (active)	0.879 µM (active)	0.0259 µM (active)	1.07 µM (active)	0.38 µM (active)	0.258 µM (active)		0.695 µM (active)	2.96 µM (inactive)	0.348 µM (active)	0.195 µM (active)	0.315 µM (active)	0.275 µM (active)	0.219 µM (active)	0.101 µM (active)	
S=C1NCCN1C(=S)NC1CCCCC1	30.3 µM (inactive)	21.8 µM (inactive)	22.1 µM (inactive)	43.1 µM (inactive)	44.8 µM (inactive)	21.8 µM (inactive)	22.1 µM (inactive)	31.3 µM (inactive)		37.2 µM (inactive)	21 µM (inactive)	39.4 µM (inactive)	38.2 µM (inactive)	46 µM (inactive)	37 µM (inactive)	43.7 µM (inactive)	19.3 µM (inactive)	30 µM (inactive)	29 µM (inactive)	20.8 µM (inactive)
CCOC(=O)C(NC(=O)c1ccco1)(Nc1nc2ccc(OCC)cc2s1)C(F)(F)F (centres undefined)	27.3 µM (inactive)	32.3 µM (inactive)	32.6 µM (inactive)	25.4 µM (inactive)	55.3 µM (inactive)	27.3 µM (inactive)	21.2 µM (inactive)	44.9 µM (inactive)	25.3 µM (inactive)	43.1 µM (inactive)	43.2 µM (inactive)	52.8 µM (inactive)	37.9 µM (inactive)	61.5 µM (inactive)	35.2 µM (inactive)	35.6 µM (inactive)	30.1 µM (inactive)		97.3 µM (inactive)	37.2 µM (inactive)
Clc1ccc(-c2ccc(-c3nnc(CCc4nnc(-c5ccc(-c6ccc(Cl)cc6)o5)o4)o3)o2)cc1	> 100 µM (inactive)	> 100 µM (inactive)	> 100 µM (inactive)	> 61.4 µM (inactive)	28.3 µM (inactive)	> 60.5 µM (inactive)	24.8 µM (inactive)	> 100 µM (inactive)	> 100 µM (inactive)	31.5 µM (inactive)	27.3 µM (inactive)	> 45 µM (inactive)	> 100 µM (inactive)	> 95.7 µM (inactive)	17.1 µM (inactive)	> 100 µM (inactive)	> 100 µM (inactive)	34 µM (inactive)	> 100 µM (inactive)	
COc1ccc(Cn2c3c(cc(OC(C)=O)c2=O)Cc2ccccc2-3)cc1	6.52 µM (inactive)	10.7 µM (inactive)	6.24 µM (inactive)	13.7 µM (inactive)	13.2 µM (inactive)	10.5 µM (inactive)	7.01 µM (inactive)	10.7 µM (inactive)	8.41 µM (inactive)	17 µM (inactive)	8.02 µM (inactive)	20 µM (inactive)	7.55 µM (inactive)	6.64 µM (inactive)	8.65 µM (inactive)	9.1 µM (inactive)	9.95 µM (inactive)		22.1 µM (inactive)	10.9 µM (inactive)
C=CC(C)(C)C(=C)C(=O)Nc1ccccc1I	81.8 µM (inactive)	> 100 µM (inactive)	> 100 µM (inactive)	> 100 µM (inactive)	> 100 µM (inactive)	> 100 µM (inactive)		> 100 µM (inactive)	> 100 µM (inactive)	> 100 µM (inactive)		> 100 µM (inactive)	> 100 µM (inactive)	> 100 µM (inactive)	> 100 µM (inactive)	> 100 µM (inactive)	> 100 µM (inactive)	98.4 µM (inactive)	> 100 µM (inactive)	
COC(=O)Cc1c(/C=C/C(C)(C)n2cnc(CCN3C(=O)CCC3=O)c2)[nH]c2ccccc12	> 100 µM (inactive)	35.4 µM (inactive)	> 100 µM (inactive)	47.2 µM (inactive)	> 100 µM (inactive)	> 100 µM (inactive)	43.4 µM (inactive)	> 100 µM (inactive)	> 100 µM (inactive)	81.1 µM (inactive)	> 100 µM (inactive)	> 100 µM (inactive)	> 100 µM (inactive)	> 100 µM (inactive)	> 100 µM (inactive)	14.2 µM (inactive)	> 100 µM (inactive)		> 100 µM (inactive)	37 µM (inactive)
CO[C@H]1SC[C@H](OC(C)=O)[C@H](OC(C)=O)[C@H]1OC(C)=O	> 100 µM (inactive)	> 100 µM (inactive)	> 100 µM (inactive)	> 100 µM (inactive)	> 100 µM (inactive)	> 100 µM (inactive)	> 100 µM (inactive)	> 100 µM (inactive)		> 100 µM (inactive)	> 100 µM (inactive)		> 100 µM (inactive)	> 100 µM (inactive)	> 100 µM (inactive)	93.8 µM (inactive)	> 100 µM (inactive)	> 100 µM (inactive)	> 100 µM (inactive)	> 100 µM (inactive)
COc1cc(C(=O)N(C(=S)OCc2ccccn2)c2ccccc2)cc(OC)c1OC	44.1 µM (inactive)	29.9 µM (inactive)	> 100 µM (inactive)	33.7 µM (inactive)	78.5 µM (inactive)	86.1 µM (inactive)		> 100 µM (inactive)	74.3 µM (inactive)		26.5 µM (inactive)	> 100 µM (inactive)	43 µM (inactive)	59.7 µM (inactive)	> 100 µM (inactive)	56.4 µM (inactive)		26.8 µM (inactive)	92.3 µM (inactive)	8.22 µM (inactive)
Cc1cc2c(c(=O)n1C)SCC2	> 100 µM (inactive)	> 100 µM (inactive)	> 100 µM (inactive)		> 100 µM (inactive)	> 100 µM (inactive)	> 100 µM (inactive)	> 100 µM (inactive)	> 100 µM (inactive)	> 100 µM (inactive)		> 100 µM (inactive)	> 100 µM (inactive)	> 100 µM (inactive)	> 100 µM (inactive)	> 100 µM (inactive)	> 100 µM (inactive)	> 100 µM (inactive)	> 100 µM (inactive)	> 100 µM (inactive)
N#Cc1c(N2CCOCC2)ncn(-c2ccc(Cl)cc2)c1=O	> 100 µM (inactive)		> 100 µM (inactive)	> 100 µM (inactive)		> 100 µM (inactive)		> 100 µM (inactive)	> 100 µM (inactive)	> 100 µM (inactive)	> 100 µM (inactive)	> 100 µM (inactive)	> 100 µM (inactive)	> 100 µM (inactive)	> 100 µM (inactive)	> 100 µM (inactive)		> 100 µM (inactive)	> 100 µM (inactive)	
CC(C)c1ccccc1NC(=O)CCc1n[nH]c(=S)o1	> 63.5 µM (inactive)	> 90.4 µM (inactive)	> 100 µM (inactive)			> 100 µM (inactive)	> 100 µM (inactive)	> 100 µM (inactive)		> 100 µM (inactive)	72.3 µM (inactive)	> 100 µM (inactive)	> 100 µM (inactive)	> 37.4 µM (inactive)	> 75.9 µM (inactive)	> 100 µM (inactive)	> 100 µM (inactive)	> 48.9 µM (inactive)	> 100 µM (inactive)	> 100 µM (inactive)
COc1ccc(/C(Cl)=C(\C#N)c2ccc(OC)c(OC)c2)cc1OC	60.1 µM (inactive)	38.6 µM (inactive)	> 100 µM (inactive)	59 µM (inactive)	35.6 µM (inactive)	80.2 µM (inactive)	59.8 µM (inactive)	63.1 µM (inactive)	79.1 µM (inactive)	61.5 µM (inactive)	> 100 µM (inactive)		> 100 µM (inactive)	> 100 µM (inactive)	40.1 µM (inactive)	42.3 µM (inactive)	81.5 µM (inactive)	15 µM (inactive)		
O=C1C(Cl)=C(NCCN2CCOCC2)C(=O)c2ncccc21	1.82 µM (inactive)	2.96 µM (inactive)	1.61 µM (inactive)	1.66 µM (inactive)	2.08 µM (inactive)	1.62 µM (inactive)		1.6 µM (inactive)	2.59 µM (inactive)	1.82 µM (inactive)	1.72 µM (inactive)	1.95 µM (inactive)	1.73 µM (inactive)	1.85 µM (inactive)	1.66 µM (inactive)	1.33 µM (inactive)			1.84 µM (inactive)	1.71 µM (inactive)
